Data taken from paper PMC9679038, “Hemoglobin is an oxygen-dependent glutathione buffer adapting the intracellular reduced glutathione levels to oxygen availability” (Redox Biology, 2022).

Molecular target: T1, Hemoglobin (Hb; oxy-Hb, also deoxy-Hb) (Homo sapiens, UniProt P68871+P69905)
T1 construct: gene HBB
T1 sequence (P68871 2-147): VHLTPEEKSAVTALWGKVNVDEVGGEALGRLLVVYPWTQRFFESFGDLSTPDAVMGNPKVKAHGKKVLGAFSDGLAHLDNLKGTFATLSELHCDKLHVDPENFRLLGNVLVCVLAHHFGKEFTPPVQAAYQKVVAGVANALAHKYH
T1 sequence (P69905 2-142): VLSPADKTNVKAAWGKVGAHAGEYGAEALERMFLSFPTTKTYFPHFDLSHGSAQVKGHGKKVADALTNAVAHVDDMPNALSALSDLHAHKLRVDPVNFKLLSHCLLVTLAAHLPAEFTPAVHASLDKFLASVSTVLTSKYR

Kd: 2 µM
Structure (SMILES): N[C@@H](CCC(=O)N[C@@H](CS)C(=O)NCC(=O)O)C(=O)O [GSH, reduced glutathione]
